Data published in patent publication US8551984B2, “Aminopyrimidines as SYK inhibitors” (Merck Sharp & Dohme Corp., priority 2009, dated 2013).

Target: recombinant human SYK (GST-hSYK fusion protein) (Homo sapiens, UniProt P43405)
Assay: biochemical
[1] = rhSYK Activity (IC50), recombinant human GST-SYK 5 pM, ATP 25 μM, biotinylated substrate peptide 250 nM, HTRF, 10-dose titration
[2] = Syk IC50, HTRF, recombinant human GST-SYK
[3] = rhSYK Activity, Table 64, first part
[4] = rhSYK Activity, table of Examples 16-x

Excerpt: Homogeneous Time-Resolved Fluorescence (HTRF) Assay for the Recombinant Human SYK Enzyme:

Cc1cc(Nc2nccc(C(F)(F)F)n2)cc(-c2cnc(CNCC(O)C(F)F)s2)c1 (stereo not drawn) [Example 88A-2]
IC50 [1]: < 100 nM

Cc1cc(Nc2nccc(C(F)(F)F)n2)cc(-c2cnc(C(=O)N3CCC[S+]([O-])CC3)s2)c1 (stereo not drawn) [Example 87B-13]
IC50 [1]: < 100 nM

CC1(C)CC(O)(c2ncc(-c3cc(Nc4nccc(C(F)(F)F)n4)cc(C(F)F)c3)s2)CCC1C(=O)O (stereo not drawn) [Example 33A-56]
IC50 (rhSYK Activity, Table 33-A): < 100 nM

Cc1cc(Nc2nccc(C3CC3)n2)cc(-c2cnc(C(C)(C)S(N)(=O)=O)s2)c1 [74A-13]
IC50 (rhSYK Activity, Table 74A): < 100 nM

COc1ccnc(Nc2cc(C)cc(-c3cnc(C4(O)CCNC(=O)CC4)s3)c2)n1 (stereo not drawn) [Example 10A-1]
IC50 (rhSYK Activity, Table 10, Formula A): < 100 nM

Cc1cc(Nc2nccc(C(F)(F)F)n2)cc(-c2cnc(C3(O)CCC(O)C(C)(C)C3)s2)c1 (stereo not drawn) [8A-6]
IC50 (rhSYK Activity, Table 8A): < 100 nM

Cc1cc(Nc2nccc(C)n2)cc(-c2cnc([C@@]3(O)CC[C@H](C(=O)O)C(C)(C)C3)s2)c1 [Example 152, (1S,4R)-4-Hydroxy-2,2-dimethyl-4-{5-[3-methyl-5-(4-methyl-pyrimidin-2-ylamino)-phenyl]-1,3-thiazol-2-yl}-cyclohexanecarboxylic acid]
IC50 [1]: < 100 nM

Cc1cc(Nc2nccc(C(F)(F)F)n2)cc(-c2cnc(C3(O)CCN(C(=O)NC4CCCCC4)CC3)s2)c1 [Example 54A-12]
IC50 (RHSYK Activity, Table 54A): < 100 nM

COC(=O)C1CCC(O)(c2ncc(-c3cc(C)cc(Nc4nccc(C5CC5)n4)c3)s2)CC1(C)C (stereo not drawn) [Example 113A-56]
IC50 (rhSYK Activity, Table 113A): < 100 nM

Cc1cc(Nc2nccc(C(F)(F)F)n2)cc(-c2cnc(C(C)(O)c3ccc(C(=O)O)cc3)s2)c1 (stereo not drawn) [4-{1-hydroxy-1-[5-(3-methyl-5-{[4-(trifluoromethyl)pyrimidin-2-yl]amino}phenyl)-1,3-thiazol-2-yl]ethyl}benzoic acid]
IC50 [2]: < 0.5 nM

Cc1cc(Nc2nccc(C(F)(F)F)n2)cc(-c2cnc(C(C)(C)C(=O)N(C)C)s2)c1 [Example 85A-2]
IC50 [1]: < 100 nM

COC(=O)C1CCC(O)(c2ncc(-c3cc(C)cc(Nc4ncc(Cl)c(OC)n4)c3)s2)CC1(C)C (stereo not drawn) [116A-38]
IC50 (rhSYK Activity, Table 116A): 100 to 1000 nM

Cc1cc(Nc2nccc(OCC3CCOC3)n2)cc(-c2cnc(C3(O)CCC3)s2)c1 (stereo not drawn) [Example 94A-15]
IC50 [1]: < 100 nM

Cc1cc(Nc2nccc(C(F)(F)F)n2)cc(-c2cnc(C3(O)C[C@@H]4C(C(=O)O)[C@@H]4C3)s2)c1 (stereo partly drawn) [Example 33C-9]
IC50 (rhSYK Activity, Table 33C): < 100 nM

Cc1cc(Nc2nccc(C(F)(F)F)n2)cc(-c2cnc(C3(O)CCN(C(=O)CC(N)=O)C3)s2)c1 (stereo not drawn) [54B-26]
IC50 (rhSYK Activity, Table 54B): < 100 nM

O=C1OCCN1Cc1ncc(-c2cccc(Nc3nccc(C(F)(F)F)n3)c2)s1 [Example 21-10]
IC50 (rhSYK Activity, Table 21): < 100 nM

CC(=O)NC1(C(=O)O)CCC(O)(c2ncc(-c3cc(C)cc(Nc4nccc(C(F)(F)F)n4)c3)s2)CC1 (stereo not drawn) [Example 33A-15]
IC50 (rhSYK Activity, Table 33-A): < 100 nM

Cc1cc(Nc2nccc(C(F)(F)F)n2)cc(-c2cnc(C3(O)CCC(NC(=O)C4CNC(=O)N4)CC3)s2)c1 (stereo not drawn) [Example 54E-15]
IC50 (rhSYK Activity, Table 54E): < 100 nM

Cc1cc(Nc2nccc(C(F)(F)F)n2)cc(-c2cnc(C3(O)CCN(C(=O)C(O)CO)C3)s2)c1 (stereo not drawn) [54B-28]
IC50 (rhSYK Activity, Table 54B): < 100 nM

Cc1cc(Nc2nccc(C)n2)cc(-c2cnc([C@]3(O)CC[C@H](C(=O)O)CC3)s2)c1 [Example 33A-31]
IC50 (rhSYK Activity, Table 33-A): < 100 nM

Cc1cc(Nc2nccc(C(F)(F)F)n2)cc(-c2cnc(C3(O)CCN(C(=O)CCO)CC3)s2)c1 [Example 54A-22]
IC50 (RHSYK Activity, Table 54A): < 100 nM

Cc1cc(Nc2nccc(C)n2)cc(-c2cnc(C3(O)CCC(CC(=O)O)CC3)s2)c1 (stereo not drawn) [Example 33A-32]
IC50 (rhSYK Activity, Table 33-A): < 100 nM

OC1(c2ncc(-c3cccc(Nc4nccc(C(F)(F)F)n4)c3)s2)CCNC1 (stereo not drawn) [54C-1]
IC50 (rhSYK Activity, Table 54C): < 100 nM

CC(=O)N1CCN(C(=O)c2ncc(-c3cc(C)cc(Nc4nccc(C(F)(F)F)n4)c3)s2)CC1 [Example 87B-7]
IC50 [1]: 100 to 1000 nM

NC(=O)NC1(c2ncc(-c3cc(F)cc(Nc4ncc(F)c(C5CC5)n4)c3)s2)CCC1 [Example 64-7]
IC50 [3]: < 100 nM

Cc1cc(Nc2nccc(C(F)(F)F)n2)cc(-c2cnc(C(=O)N3CCN(C)C(=O)C3C)s2)c1 (stereo not drawn) [Example 87B-5]
IC50 [1]: 100 to 1000 nM

Cc1cc(Nc2nccc(O[C@H](C)C(=O)O)n2)cc(-c2cnc(C3(O)CCC3)s2)c1 [Example 94A-22]
IC50 [1]: 100 to 1000 nM

Cc1cc(Nc2nccc(C(F)(F)F)n2)cc(-c2cnc(C3(O)CCN(S(N)(=O)=O)C3)s2)c1 (stereo not drawn) [54B-6]
IC50 (rhSYK Activity, Table 54B): < 100 nM

Cc1cc(Nc2nccc(C(F)(F)F)n2)cc(-c2cnc(CNC(C)c3ccccn3)s2)c1 (stereo not drawn) [Example 88A-9]
IC50 [1]: < 100 nM

Cc1cc(Nc2nccc(SCCCO)n2)cc(-c2cnc(C3(O)CCC3)s2)c1 [Example 108A-45]
IC50 (rhSYK Activity, Table 108A): < 100 nM

COc1nc(Nc2cc(C)cc(-c3cnc(C4(NC(N)=O)CCC4)s3)c2)ncc1Cl [Example 64-8]
IC50 [3]: < 100 nM

CCc1ccnc(Nc2cc(C)cc(-c3cnc([C@@]4(O)CC[C@H](C(=O)O)C(C)(C)C4)s3)c2)n1 [Example 113A-49]
IC50 (rhSYK Activity, Table 113A): < 100 nM

Cc1cc(Nc2nccc(C(F)(F)F)n2)cc(-c2cnc(C3(O)CCCN(C(=O)c4nnnn4C)CC3)s2)c1 (stereo not drawn) [Example 54D-55]
IC50 (rhSYK Activity, Table 54D): < 100 nM

Cc1cc(Nc2nccc([C@H](C)F)n2)cc(-c2cnc([C@@]3(O)CC[C@H](C(=O)O)C(C)(C)C3)s2)c1 [(1S,4R)-4-{5-[3-({4-[(1S)-1-fluoroethyl]pyrimidin-2-yl}amino)-5-methylphenyl]-1,3-thiazol-2-yl}-4-hydroxy-2,2-dimethylcyclohexanecarboxylic acid]
IC50 [2]: < 0.5 nM

Cc1cc(Nc2nccc(OC(CN)c3ccncn3)n2)cc(-c2cnc(C3(O)CCC3)s2)c1 (stereo not drawn) [Example 108A-6]
IC50 (rhSYK Activity, Table 108A): < 100 nM

C#Cc1ccc(C(=O)NC2CCC(O)(c3ncc(-c4cc(C)cc(Nc5nccc(C(F)(F)F)n5)c4)s3)CC2)cc1 (stereo not drawn) [Example 54E-32]
IC50 (rhSYK Activity, Table 54E): < 100 nM

Cc1cc(Nc2nccc([S+](C)[O-])n2)cc(-c2cnc(C3(O)CCC3)s2)c1 (stereo not drawn) [Example 108A-38]
IC50 (rhSYK Activity, Table 108A): < 100 nM

Cc1cc(Nc2nccc(C(F)(F)F)n2)cc(-c2cnc(C3(C(N)=O)CC3)s2)c1 [Example 85B-3]
IC50 [1]: < 100 nM

Cc1cc(Nc2nccc(C)n2)cc(-c2cnc(C3(O)CC4CCC3CC4C(=O)O)s2)c1 (stereo not drawn) [Example 33C-18]
IC50 (rhSYK Activity, Table 33C): < 100 nM

Cc1cc(Nc2ncc(Cl)c(C)n2)cc(-c2cnc([C@]3(O)CC[C@@H](C(=O)O)CC3)s2)c1 [116A-4]
IC50 (rhSYK Activity, Table 116A): < 100 nM

Cc1cc(Nc2nccc(C(F)(F)F)n2)cc(-c2cnc(CBr)s2)c1 [Example 90, N-{3-[2-(bromomethyl)-1,3-thiazol-5-yl]-5-methylphenyl}-4-(trifluoromethyl)pyrimidin-2-amine]
IC50 [1]: < 100 nM

Cc1cc(Nc2nccc(C(C)C)n2)cc(-c2cnc(C3(O)CCCN(C(=O)CC(=O)O)CC3)s2)c1 (stereo not drawn) [Example 54D-7]
IC50 (rhSYK Activity, Table 54D): < 100 nM

Cc1cc(Nc2nccc(C(F)(F)F)n2)cc(-c2cnc(CNC(CO)(CO)CO)s2)c1 [Example 88A-47]
IC50 [1]: < 100 nM

Cc1cc(Nc2ncc(F)c(C)n2)cc(-c2cnc(C(C)(C)S(N)(=O)=O)s2)c1 [74A-5]
IC50 (rhSYK Activity, Table 74A): < 100 nM

Cc1cc(Nc2nccc(C(F)(F)F)n2)cc(-c2cnc(CC(C)(C)C(N)=O)s2)c1 [Example 79-10]
IC50 [1]: < 100 nM

CC(C)NC(=O)Nc1cc(Nc2nccc(C(F)(F)F)n2)cc(-c2cnc(C3(O)CCC3)s2)c1 [Example 19-4]
IC50 (rhSYK Activity, table of Examples 19-x): < 100 nM

Cc1cc(Nc2nccc(C(F)(F)F)n2)cc(-c2cnc(C3(O)CCN(C(=O)Cc4ccccn4)CC3)s2)c1 [Example 54A-46]
IC50 (RHSYK Activity, Table 54A): < 100 nM

Cc1cc(Nc2nccc(C(F)(F)F)n2)cc(-c2cnc(C3(O)CCCN(C(=O)CC(F)(F)F)CC3)s2)c1 (stereo not drawn) [Example 54D-54]
IC50 (rhSYK Activity, Table 54D): < 100 nM

CO/C=C\c1ncc(-c2cc(C)cc(Nc3nccc(C(F)(F)F)n3)c2)s1 [153(B), N-(3-{2-[(Z)-2-Methoxyethenyl]-1,3-thiazol-5-yl}-5-methylphenyl)-4-(trifluoromethyl)pyrimidin-2-amine]
IC50 [1]: < 100 nM

Cc1cc(Nc2nccc(C(F)(F)F)n2)cc(-c2cnc(C(C)(C)C(=O)OC(C)(C)C)s2)c1 [Example 81, tert-Butyl 2-methyl-2-[5-(3-methyl-5-{[4-(trifluoromethyl)pyrimidin-2-yl]amino}phenyl)-1,3-thiazol-2-yl]propanoate]
IC50 [1]: 100 to 1000 nM

Cc1cc(Nc2nccc(C(F)(F)F)n2)cc(-c2cnc(C3(O)CCC(NC(=O)C(C)(CO)CO)CC3)s2)c1 (stereo not drawn) [Example 54E-20]
IC50 (rhSYK Activity, Table 54E): < 100 nM

CCOC(=O)CCc1ncc(-c2cc(C)cc(Nc3nccc(C(F)(F)F)n3)c2)s1 [Example 79-1, Ethyl 3-[5-(3-methyl-5-{[4-(trifluoromethyl)pyrimidin-2-yl]amino}phenyl)-1,3-thiazol-2-yl]-propanoate]
IC50 [1]: < 100 nM

O=C(Nc1cc(Nc2nccc(C(F)(F)F)n2)cc(-c2cnc(C3(O)CCC3)s2)c1)C1CC1 [Example 16-2]
IC50 [4]: < 100 nM

O=C(NCCO)[C@H]1CC[C@H](c2ncc(-c3cccc(Nc4nccc(C(F)(F)F)n4)c3)s2)CC1 [Example 21-12]
IC50 (rhSYK Activity, Table 21): < 100 nM

CCCC(=O)Nc1cc(Nc2nccc(C(F)(F)F)n2)cc(-c2cnc(C3(O)CCC3)s2)c1 [Example 16-1]
IC50 [4]: < 100 nM

COC(=O)[C@H]1CC[C@](O)(c2ncc(-c3cc(C)cc(Nc4nccc(OC)n4)c3)s2)CC1(C)C [Example 113A-54]
IC50 (rhSYK Activity, Table 113A): < 100 nM

Cc1cc(Nc2nccc(C(F)(F)F)n2)cc(-c2cnc(C(F)(F)c3ccc(C(=O)O)cc3)s2)c1 [Example 113D-7]
IC50 (rhSYK Activity, Table 113D, upper part): < 100 nM

Cc1cc(Nc2ncc(Cl)c(C)n2)cc(-c2cnc([C@@]3(O)CC[C@H](C(=O)O)C(C)(C)C3)s2)c1 [116A-27]
IC50 (rhSYK Activity, Table 116A): < 100 nM

Cc1cc(Nc2nccc(C(F)(F)F)n2)cc(-c2cnc([C@]3(O)CC[C@@H](NC(=O)c4ccc(O)cn4)CC3)s2)c1 [Example 54E-24]
IC50 (rhSYK Activity, Table 54E): < 100 nM

Cc1cc(Nc2nccc(OCCOc3cccc(O)c3)n2)cc(-c2cnc(C3(O)CCC3)s2)c1 [Example 108A-28]
IC50 (rhSYK Activity, Table 108A): 100 to 1000 nM
